From patent publication US7109333B2, “Heterocyclic compounds” (SmithKline Beecham Corporation, priority 1998, dated 2006)

Legend:
[1] = system: HB4a c5.2 (HB4a transfected with human c-erbB2 cDNA); assay: Methylene blue growth inhibition assay, HB4a erbB2; format: cell-based; settings: 72 h, HB4a c5.2, 3 days, read-out: Cell Proliferation HB4a erbB2, IC50
Method: (§1) Human breast (BT474), head and neck (HN5) and gastric tumor (N87) cell lines were cultured in low glucose DMEM (Life Technologies 12320–032) containing 10% fetal bovine serum (FBS) at 37° C. in a humidified 10% CO2, 90% air incubator. The SV40 transformed human mammary epithelial cell line HB4a was transfected with either human H-ras cDNA (HB4a r4.2) or the human c-erbB2 cDNA (HB4a c5.2). The HB4a clones were cultured in RPMI containing 10% FBS, insulin (5 μg/ml), hydrocortisone (5 μg/ml), supplemented with the selection agent hygromycin B (50 μg/ml). Cells were harvested using trypsin/EDTA, counted using a haemocytometer, and plated in […] of the appropriate media, at the following densities, in a 96-well tissue culture plate (Falcon 3075): BT474 10,000 cells/well, HN5 3,000 cells/well, N87 10,000 cells/well, HB4a c5.2 3,000 cells/well, HB4a r4.2 3,000 cells/well. The next day, compounds were diluted in DMEM containing […] gentamicin, at twice the final required concentration, from 10 mM stock solutions in DMSO. […] of these dilutions were added to the […] of media currently on the cell plates. Medium containing 0.6% DMSO was added to control wells. Compounds diluted in DMEM were added to all cell lines, including the HB4a r4.2 and HB4a c5.2 cell lines. The final concentration of DMSO in all wells was 0.3%. Cells were incubated at 37° C., 10% CO2 for 3 days. Medium was removed by aspiration. Cell biomass was estimated by staining cells with 100 μl per well methylene blue (Sigma M9140, 0.5% in 50:50 ethanol:water), and incubation at room temperature for at least 30 minutes. Stain was removed, and the plates rinsed under a gentle stream of water, and air-dried. To release stain from the cells 100 μl of solubilization solution was added (1% N-lauroyl sarcosine, Sodium salt, Sigma L5125, in PBS), and plates were shaken gently for about 30 minutes. Optical density at 620 nm was measured on a microplate reader. Percent inhibition of cell growth was calculated relative to vehicle treated control wells. Concentration of compound that inhibits 50% of cell growth (IC50) was interpolated using nonlinear regression (Levenberg-Marquardt) and the equation, y=Vmax*(1−(x/(K+x)))+Y2, where “K” was equal to the IC50.

c-erbB-2 = target: T1, c-erbB-2 (Homo sapiens, UniProt P04626); assay: Substrate phosphorylation assay, erbB2, assay (b) (SPA, 33P-ATP); format: biochemical; settings: Tables 1A and 1B
T1 construct: baculovirus expressed, recombinant constructs of the intracellular domains of c-erbB-2 and c-erbB-4; made in house
Source text: The substrate phosphorylation assays use baculovirus expressed, recombinant constructs of the intracellular domains of c-erbB-2 and c-erbB-4 that are constitutively active and EGFr isolated from solubilised A431 cell membranes. The method measures the ability of the isolated enzymes to catalyse the transfer of the g-phosphate from ATP onto tyrosine residues in a biotinylated synthetic peptide (Biotin-[…]. Substrate phosphorylation was detected following either of the following two procedures: a.) c-ErbB-2, c-ErbB4 or EGFr were incubated for 30 minutes, at room temperature, with 10 mM MnCl2, 10 mM ATP, 5 mM peptide, and test compound (diluted from a 5 mM stock in DMSO, final DMSO concentration is 2%) in 40 mM HEPES buffer, pH 7.4. The reaction was stopped by the addition of EDTA (final concentration 0.15 mM) and a sample was transferred to a streptavidin-coated 96-well plate. The plate was washed and the level of phosphotyrosine on the peptide was determined using a Europium-labelled antiphosphotyrosine antibody and quantified with a time-resolved fluorescence technique. b.) ErbB2 was incubated for 50 minutes at room temperature with 15 mM MnCl2, 2 mM ATP, 0.25 mCi [γ-^33P] ATP/well, 5 mM peptide substrate, and test compound (diluted from a 10 mM stock in DMSO, final DMSO concentration is 2%) in 50 mM MOPS pH 7.2. The reaction was terminated by the addition of […] of PBS containing 2.5 mg/ml streptavidin-coated SPA beads (Amersham Inc.), 50 mM ATP, 10 mM EDTA and 0.1% TX-100. The microtitre plates were sealed and SPA beads were allowed to settle for at least six hours. The SPA signal was measured using a Packard Topcount 96-well plate scintillation counter (Packard Instrument Co., Meriden, Conn.).

[2] = system: HB4a r4.2 (HB4a transfected with human H-ras cDNA); assay: Methylene blue growth inhibition assay, HB4a ras; format: cell-based; settings: 72 h, HB4a r4.2, 3 days, read-out: Cell Proliferation HB4a ras, IC50
Method: as §1

[3] = system: HN5 head and neck tumor cell line; assay: Methylene blue growth inhibition assay, HN5; format: cell-based; settings: Homo sapiens, 72 h; HN5, 3 days; read-out: Cell Proliferation HN5, IC50
Method: as §1

[4] = system: N87 gastric tumor cell line; assay: Methylene blue growth inhibition assay, N87; format: cell-based; settings: Homo sapiens, 72 h; N87, 3 days; read-out: Cell Proliferation N87, IC50
Method: as §1

[5] = system: BT474 breast tumor cell line; assay: Methylene blue growth inhibition assay, BT474; format: cell-based; settings: Homo sapiens, BT-474, 72 h; BT474, 3 days; read-out: Cell Proliferation BT474, IC50
Method: as §1

T1 sequence (P04626 676-1255 limits assumed): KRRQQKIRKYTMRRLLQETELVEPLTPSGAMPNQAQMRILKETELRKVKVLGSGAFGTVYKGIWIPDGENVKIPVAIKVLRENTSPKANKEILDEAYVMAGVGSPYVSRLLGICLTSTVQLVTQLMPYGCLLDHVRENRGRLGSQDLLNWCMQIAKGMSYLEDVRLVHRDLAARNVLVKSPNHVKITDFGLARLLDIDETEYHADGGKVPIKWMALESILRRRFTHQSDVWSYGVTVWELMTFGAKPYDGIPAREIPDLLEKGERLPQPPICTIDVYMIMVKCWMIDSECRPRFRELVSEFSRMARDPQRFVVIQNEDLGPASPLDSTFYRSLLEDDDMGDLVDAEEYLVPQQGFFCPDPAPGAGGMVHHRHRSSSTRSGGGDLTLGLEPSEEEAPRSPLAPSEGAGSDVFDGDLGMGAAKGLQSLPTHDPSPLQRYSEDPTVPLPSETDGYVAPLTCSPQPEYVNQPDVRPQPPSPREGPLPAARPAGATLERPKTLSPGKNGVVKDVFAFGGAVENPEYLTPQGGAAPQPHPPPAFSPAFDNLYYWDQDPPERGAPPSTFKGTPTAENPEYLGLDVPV

Structure (SMILES)	IC50 (c-erbB-2)	IC50 [3]	IC50 [4]	IC50 [5]	IC50 [1]	IC50 [2]
CS(=O)(=O)CCNCc1nc(-c2ccc3ncnc(Nc4ccc(OCc5ccccc5)c(F)c4)c3c2)cs1 [Example 15, N-[4-(benzyloxy)-3-fluorophenyl]-6-[2-({[2-(methanesulphonyl)ethyl]amino}methyl)-1,3-thiazol-4-yl]-4-quinazolinamine]	< 0.1 µM	< 5 µM	< 5 µM	< 5 µM	< 5 µM	> 50 µM
COc1cc2ncnc(Nc3ccc4c(cnn4Cc4ccccc4)c3)c2cc1-c1ccc(CNCCS(C)(=O)=O)o1 [Example 16, N-(1-benzyl-1H-indazol-5-yl)-7-methoxy-6-[5-({[2-(methanesulphonyl)ethyl]amino}methyl)-2-furyl]-4-quinazolinamine]	< 0.1 µM	< 5 µM	< 5 µM	< 5 µM	< 5 µM	5 to 25 µM
CS(=O)(=O)CCNCc1ccc(-c2ccc3ncnc(Nc4ccc(OCc5cccc(C(F)(F)F)c5)cc4)c3c2)o1 [Example 17, 6-[5-({[2-(methanesulphonyl)ethyl]amino}methyl)-2-furyl]-N-(4-{[3-(trifluoromethyl)benzyl]oxy}phenyl)-4-quinazolinamine]	< 0.1 µM	5 to 25 µM	5 to 25 µM	< 5 µM	5 to 25 µM	5 to 25 µM
CS(=O)(=O)CCNCc1ccoc1-c1ccc2ncnc(Nc3ccc(OCc4ccccc4)cc3)c2c1 [Example 20, N-[4-(benzyloxy)phenyl]-6-[3-({[2-(methanesulphonyl)ethyl]amino}methyl)-2-furyl]-4-quinazolinamine]	< 0.1 µM	5 to 25 µM	< 5 µM	< 5 µM	< 5 µM	> 50 µM
CS(=O)(=O)CCNCc1nc(-c2ccc3ncnc(Nc4ccc5c(cnn5Cc5cccc(F)c5)c4)c3c2)cs1 [Example 21, N-[1-(3-fluorobenzyl)-1H-indazol-5-yl]-6-[2-({[2-(methanesulphonyl)ethyl]amino}methyl)-1,3-thiazol-4-yl]-4-quinazolinamine]	< 0.1 µM	< 5 µM	< 5 µM	< 5 µM	< 5 µM	5 to 25 µM
CS(=O)(=O)CCNCc1nc(-c2ccc3ncnc(Nc4ccc(OCc5cccc(C(F)(F)F)c5)cc4)c3c2)cs1 [Example 24, 6-[2-({[2-(methanesulphonyl)ethyl]amino}methyl)-1,3-thiazol-4-yl]-N-(4-{[3-(trifluoromethyl)benzyl]oxy}phenyl)-4-quinazolinamine]	< 0.1 µM	< 5 µM	5 to 25 µM	5 to 25 µM	5 to 25 µM	> 50 µM
CS(=O)(=O)CCNCc1nc(-c2ccc3ncnc(Nc4ccc(OCc5cccc(F)c5)c(F)c4)c3c2)cs1 [Example 25, N-{3-fluoro-4-[(3-fluorobenzyl)oxy]phenyl}-6-[2-({[2-(methanesulphonyl)ethyl]amino}methyl)-1,3-thiazol-4-yl]-4-quinazolinamine]	< 0.1 µM	< 5 µM	< 5 µM	< 5 µM	< 5 µM	> 50 µM
CS(=O)(=O)CCNCc1nc(-c2ccc3ncnc(Nc4ccc5c(cnn5Cc5ccccc5)c4)c3c2)cs1 [Example 26, N-(1-benzyl-1H-indazol-5-yl)-6-[2-({[2-(methanesulphonyl)ethyl]amino}methyl)-1,3-thiazol-4-yl]-4-quinazolinamine]	< 0.1 µM	< 5 µM	< 5 µM	< 5 µM	< 5 µM	5 to 25 µM
CS(=O)(=O)CCNCc1ccc(-c2ccc3ncnc(Nc4ccc(OCc5ccccc5)c(F)c4)c3c2)o1 [Example 27]	< 0.1 µM	< 5 µM	< 5 µM	< 5 µM	< 5 µM	5 to 25 µM
CS(=O)(=O)CCNCc1ccc(-c2ccc3ncnc(Nc4ccc(OCc5ccccc5)c(Cl)c4)c3c2)o1 [Example 28]	< 0.1 µM	< 5 µM	< 5 µM	< 5 µM	< 5 µM	25 to 50 µM

The next lines start with results.

IC50 (c-erbB-2)	IC50 [3]	IC50 [4]	IC50 [5]	Structure (SMILES)	IC50 [1]	IC50 [2]
< 0.1 µM	< 5 µM	< 5 µM	< 5 µM	CS(=O)(=O)CCNCc1ccc(-c2ccc3ncnc(Nc4ccc(OCc5cccc(F)c5)c(F)c4)c3c2)o1 [Example 18, N-{3-fluoro-4-[(3-fluorobenzyl)oxy]phenyl}-6-[5-({[2-(methanesulphonyl)ethyl]amino}methyl)-2-furyl]-4-quinazolinamine]	< 5 µM	5 to 25 µM
< 0.1 µM	< 5 µM	< 5 µM	< 5 µM	CS(=O)(=O)CCNCc1ccc(-c2ccc3ncnc(Nc4ccc(OCc5cccc(Br)c5)cc4)c3c2)o1 [Example 19, N-{4-[(3-bromobenzyl)oxy]phenyl}-6-[5-({[2-(methanesulphonyl)ethyl]amino}methyl)-2-furyl]-4-quinazolinamine]	< 5 µM	> 50 µM
< 0.1 µM	< 5 µM	< 5 µM	< 5 µM	CS(=O)(=O)CCNCc1ccc(-c2ccc3ncnc(Nc4ccc(S(=O)(=O)c5ccccc5)cc4)c3c2)o1 [Example 22, 6-[5-({[2-(methanesulphonyl)ethyl]amino}methyl)-2-furyl]-N-[4-(benzenesulphonyl)phenyl]-4-quinazolinamine]	< 5 µM	25 to 50 µM
< 0.1 µM	< 5 µM	< 5 µM	< 5 µM	CS(=O)(=O)CCNCc1nc(-c2ccc3ncnc(Nc4ccc(S(=O)(=O)c5ccccc5)cc4)c3c2)cs1 [Example 23, 6-[2-({[2-(methanesulphonyl)ethyl]amino}methyl)-1,3-thiazol-4-yl]-N-[4-(benzenesulphonyl)phenyl]-4-quinazolinamine]	< 5 µM	25 to 50 µM
< 0.1 µM	< 5 µM	< 5 µM	< 5 µM	COc1cc2ncnc(Nc3ccc(S(=O)(=O)c4ccccc4)cc3)c2cc1-c1ccc(CNCCS(C)(=O)=O)o1 [Example 33, 6-[5-({[2-(Methanesulphonyl)ethyl]amino}methyl)-2-furyl]-7-methoxy-N-(4-benzenesulphonyl)phenyl-4-quinazolinamine]	< 5 µM	< 5 µM
